The text below walks through data of BindingDB's records for doi:10.1074/jbc.M113.533885 (University of Texas Southwestern Medical Center, 2014).

The target of test [1] is T1, [Pyruvate dehydrogenase (acetyl-transferring)] kinase isozyme 2, mitochondrial (Homo sapiens, UniProt Q15119). The experiment in a line: Isothermal Titration Calorimetry (ITC). Conditions: pH 7.5; 15 °C. The protocol: (§1) The PDK2 or Hsp90 N-terminal domain protein was dialyzed against 1 liter of thedialysis buffer containing 50 mM Tris-Cl, pH 7.5, 50 mM KCl, 1 mM MgCl2, and 0.5 mM β-mercaptoethanol.
(In general: In ITC the heat of successive injections is recorded.)

Test [2] has as its target T2, Heat shock protein HSP 90-alpha [1-236] (Homo sapiens, UniProt P07900).
T2 construct: 1-236
The test can be described thus: Isothermal Titration Calorimetry (ITC). The following applies: pH 7.5; 15 °C. The procedure:
as §1

Test [3] deals with [Pyruvate dehydrogenase (acetyl-transferring)] kinase isozyme 4, mitochondrial (Homo sapiens, UniProt Q16654). The test can be described thus: PDK Inhibition Assay. Conditions: pH 7.5; 25 °C.
Chain of [Pyruvate dehydrogenase (acetyl-transferring)] kinase isozyme 4, mitochondrial (Q16654 whole entry): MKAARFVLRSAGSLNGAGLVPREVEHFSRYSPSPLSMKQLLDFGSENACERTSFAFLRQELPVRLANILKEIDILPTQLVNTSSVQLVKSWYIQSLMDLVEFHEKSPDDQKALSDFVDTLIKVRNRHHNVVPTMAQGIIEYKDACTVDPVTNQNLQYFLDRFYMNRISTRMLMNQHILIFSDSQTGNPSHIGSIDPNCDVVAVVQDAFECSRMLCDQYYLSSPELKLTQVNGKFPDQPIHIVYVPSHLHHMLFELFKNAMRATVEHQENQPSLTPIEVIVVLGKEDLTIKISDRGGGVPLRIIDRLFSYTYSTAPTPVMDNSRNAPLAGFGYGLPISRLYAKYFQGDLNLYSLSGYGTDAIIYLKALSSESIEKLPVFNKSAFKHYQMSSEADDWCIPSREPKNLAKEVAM
For test [4], the target named is T1, [Pyruvate dehydrogenase (acetyl-transferring)] kinase isozyme 2, mitochondrial. The experiment in a line: PDK Inhibition Assay. Conditions: pH 7.5; 25 °C.

For orientation: Kd means the constant that tells how readily two partners part at equilibrium. A lower Kd goes with tighter binding. Usually IC50 stands for the concentration that inhibits the measured activity by half. A higher IC50 goes with weaker potency. On to `Oc1ccc(-c2nnc(S)n2-c2cccc3ccccc23)c(O)c1` [Resorcinol analog, 1], for which the results for the Kd in test [1] and in test [2] were 6.76 µM and 0.025 µM, respectively. Besides, the IC50 in test [3] stood at 0.28 µM; in test [4], 3.82 µM.

For `O=C(O)C(Cl)Cl` [DCA], the figures for the IC50 in test [3] and in test [4] were 80 µM and 183 µM, respectively.
